Reference: article PMC3857843, “Multiple Transport-Active Binding Sites Are Available for a Single Substrate on Human P-Glycoprotein (ABCB1)” (PLoS ONE, 2013)

What was measured:
F343C mutant Pgp [1] = molecular target: T1, F343C mutant Pgp (Homo sapiens, UniProt P08183, C1074A/C1125A/C1227A/C137A/C431A/C717A/C956A/F343C); test: Transport of fluorescent substrates in BacMam-transduced HeLa cells (flow cytometry); conditions: compared to cysless WT Pgp (taken as 100%), calcein-AM 0.5 µM 10 min, Rh123 […], other substrates 0.5 µM 45 min
Experimental: (§1) The BacMam-Pgp virus (encoding cysless WT and the mutant Pgps) was added to 2.5 million HeLa cells at a titer of 50-60 viral particles per cell in 3 ml of DMEM and incubated at 37°C [30]. After 1 hr DMEM was added to make a total of 20 ml in the flask and these infected cells were further incubated for 3-4 hrs. 10 mM butyric acid was then added and the cells continued to incubate at 37°C. After 24 hrs, the cells were trypsinized, washed, counted and analyzed by flow cytometry for cell surface expression and the function of the wildtype and mutant Pgps.
(§2) The transport function of cysless WT and mutant Pgps was determined using fluorescent compounds with flow cytometry as previously described. […] Cells were washed with cold PBS and resuspended in PBS containing 0.1% BSA before analysis.

F343C/V982C mutant Pgp [2] = molecular target: T2, F343C/V982C mutant Pgp (Homo sapiens, UniProt P08183, C1074A/C1125A/C1227A/C137A/C431A/C717A/C956A/F343C/V982C); test: as above; conditions: compared to cysless WT Pgp (taken as 100%), calcein-AM 0.5 µM 10 min, Rh123 […], other substrates 0.5 µM 45 min
T2 sequence (P08183 whole entry C137A/F343C/C431A/C717A/C956A/V982C/C1074A/C1125A/C1227A): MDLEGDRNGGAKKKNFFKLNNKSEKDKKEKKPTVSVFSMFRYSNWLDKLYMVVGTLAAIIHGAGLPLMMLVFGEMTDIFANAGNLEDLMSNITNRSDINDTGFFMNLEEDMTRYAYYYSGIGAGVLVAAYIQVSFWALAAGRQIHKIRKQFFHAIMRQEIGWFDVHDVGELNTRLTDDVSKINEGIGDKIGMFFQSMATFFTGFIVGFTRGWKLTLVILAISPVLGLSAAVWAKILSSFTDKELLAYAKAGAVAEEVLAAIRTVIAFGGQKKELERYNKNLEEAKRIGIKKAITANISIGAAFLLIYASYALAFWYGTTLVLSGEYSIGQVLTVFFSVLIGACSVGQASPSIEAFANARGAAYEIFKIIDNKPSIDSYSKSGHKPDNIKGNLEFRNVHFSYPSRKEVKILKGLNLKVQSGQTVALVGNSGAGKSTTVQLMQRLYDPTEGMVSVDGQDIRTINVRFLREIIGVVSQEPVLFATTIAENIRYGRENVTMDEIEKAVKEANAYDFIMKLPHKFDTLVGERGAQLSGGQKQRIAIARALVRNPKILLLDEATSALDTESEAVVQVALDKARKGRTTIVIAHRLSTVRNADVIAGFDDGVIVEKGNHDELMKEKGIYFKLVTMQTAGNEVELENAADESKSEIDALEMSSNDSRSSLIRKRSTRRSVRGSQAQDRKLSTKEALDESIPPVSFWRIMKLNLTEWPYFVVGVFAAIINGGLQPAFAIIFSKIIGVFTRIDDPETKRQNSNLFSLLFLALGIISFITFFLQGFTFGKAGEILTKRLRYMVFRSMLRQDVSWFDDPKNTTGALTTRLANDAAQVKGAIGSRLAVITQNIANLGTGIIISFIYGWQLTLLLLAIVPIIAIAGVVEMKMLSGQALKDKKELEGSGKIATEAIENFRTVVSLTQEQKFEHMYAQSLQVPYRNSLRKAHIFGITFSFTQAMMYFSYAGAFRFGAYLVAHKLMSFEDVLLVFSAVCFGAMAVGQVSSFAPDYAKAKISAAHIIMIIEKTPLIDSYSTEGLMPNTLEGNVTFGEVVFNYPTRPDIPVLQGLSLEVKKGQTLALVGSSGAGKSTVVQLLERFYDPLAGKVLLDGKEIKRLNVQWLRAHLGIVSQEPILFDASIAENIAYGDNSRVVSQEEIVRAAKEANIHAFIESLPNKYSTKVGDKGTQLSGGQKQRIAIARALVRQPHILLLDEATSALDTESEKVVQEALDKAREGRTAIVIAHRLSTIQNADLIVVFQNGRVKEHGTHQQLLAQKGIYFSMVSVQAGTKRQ
Experimental: as §1, §2

F728C mutant Pgp [3] = molecular target: T3, F728C mutant Pgp (Homo sapiens, UniProt P08183, C1074A/C1125A/C1227A/C137A/C431A/C717A/C956A/F728C); test: as above; conditions: compared to cysless WT Pgp (taken as 100%), calcein-AM 0.5 µM 10 min, Rh123 […], other substrates 0.5 µM 45 min
Experimental: as §1, §2

F978C mutant Pgp = F978C mutant Pgp (Homo sapiens, UniProt P08183, C1074A/C1125A/C1227A/C137A/C431A/C717A/C956A/F978C); test: as above; conditions: compared to cysless WT Pgp (taken as 100%), calcein-AM 0.5 µM 10 min, Rh123 […], other substrates 0.5 µM 45 min
Experimental: as §1, §2

Q725C mutant Pgp [4] = molecular target: T4, Q725C mutant Pgp (Homo sapiens, UniProt P08183, C1074A/C1125A/C1227A/C137A/C431A/C717A/C956A/Q725C); test: as above; conditions: compared to cysless WT Pgp (taken as 100%), calcein-AM 0.5 µM 10 min, Rh123 […], other substrates 0.5 µM 45 min
Experimental: as §1, §2

Q725C/V982C mutant Pgp [5] = molecular target: T5, Q725C/V982C mutant Pgp (Homo sapiens, UniProt P08183, C1074A/C1125A/C1227A/C137A/C431A/C717A/C956A/Q725C/V982C); test: as above; conditions: compared to cysless WT Pgp (taken as 100%), calcein-AM 0.5 µM 10 min, Rh123 […], other substrates 0.5 µM 45 min
T5 sequence (P08183 whole entry C137A/C431A/C717A/Q725C/C956A/V982C/C1074A/C1125A/C1227A): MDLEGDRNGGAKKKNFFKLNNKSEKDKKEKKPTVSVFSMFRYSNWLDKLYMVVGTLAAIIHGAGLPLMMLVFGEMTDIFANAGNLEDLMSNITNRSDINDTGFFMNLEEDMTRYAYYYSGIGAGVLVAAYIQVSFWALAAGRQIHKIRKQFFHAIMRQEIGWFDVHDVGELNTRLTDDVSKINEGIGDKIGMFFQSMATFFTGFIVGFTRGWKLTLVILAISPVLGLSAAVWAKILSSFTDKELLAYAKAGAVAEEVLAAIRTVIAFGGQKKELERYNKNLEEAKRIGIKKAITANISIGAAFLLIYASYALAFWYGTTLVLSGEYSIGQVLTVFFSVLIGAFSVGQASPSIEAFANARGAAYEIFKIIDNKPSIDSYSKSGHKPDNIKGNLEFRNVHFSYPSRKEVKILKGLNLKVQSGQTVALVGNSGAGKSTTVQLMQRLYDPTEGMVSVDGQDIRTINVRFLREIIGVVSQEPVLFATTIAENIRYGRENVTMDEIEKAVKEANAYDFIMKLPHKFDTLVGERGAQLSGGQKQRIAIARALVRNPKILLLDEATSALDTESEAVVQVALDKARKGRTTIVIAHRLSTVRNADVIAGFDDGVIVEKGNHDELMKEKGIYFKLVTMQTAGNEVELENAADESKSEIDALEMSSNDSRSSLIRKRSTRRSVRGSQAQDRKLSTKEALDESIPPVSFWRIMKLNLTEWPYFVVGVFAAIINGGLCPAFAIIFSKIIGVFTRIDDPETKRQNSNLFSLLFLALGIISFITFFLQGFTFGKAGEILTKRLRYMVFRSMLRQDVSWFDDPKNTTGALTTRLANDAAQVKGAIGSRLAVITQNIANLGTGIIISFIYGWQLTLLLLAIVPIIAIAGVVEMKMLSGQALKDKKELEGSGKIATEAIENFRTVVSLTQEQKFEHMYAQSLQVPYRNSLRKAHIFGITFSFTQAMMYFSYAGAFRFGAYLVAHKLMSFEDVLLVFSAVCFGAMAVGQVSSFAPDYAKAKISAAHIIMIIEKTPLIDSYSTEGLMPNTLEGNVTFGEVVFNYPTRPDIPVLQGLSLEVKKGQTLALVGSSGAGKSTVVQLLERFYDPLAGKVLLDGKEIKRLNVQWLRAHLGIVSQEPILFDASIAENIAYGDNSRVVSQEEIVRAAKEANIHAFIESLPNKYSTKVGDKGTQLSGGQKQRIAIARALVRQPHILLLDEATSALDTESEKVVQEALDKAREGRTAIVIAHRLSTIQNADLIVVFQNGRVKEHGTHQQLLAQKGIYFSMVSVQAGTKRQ
Experimental: as §1, §2

V982C mutant Pgp [6] = molecular target: T6, V982C mutant Pgp (Homo sapiens, UniProt P08183, C1074A/C1125A/C1227A/C137A/C431A/C717A/C956A/V982C); test: as above; conditions: compared to cysless WT Pgp (taken as 100%), calcein-AM 0.5 µM 10 min, Rh123 […], other substrates 0.5 µM 45 min
T6 sequence (P08183 whole entry C137A/C431A/C717A/C956A/V982C/C1074A/C1125A/C1227A): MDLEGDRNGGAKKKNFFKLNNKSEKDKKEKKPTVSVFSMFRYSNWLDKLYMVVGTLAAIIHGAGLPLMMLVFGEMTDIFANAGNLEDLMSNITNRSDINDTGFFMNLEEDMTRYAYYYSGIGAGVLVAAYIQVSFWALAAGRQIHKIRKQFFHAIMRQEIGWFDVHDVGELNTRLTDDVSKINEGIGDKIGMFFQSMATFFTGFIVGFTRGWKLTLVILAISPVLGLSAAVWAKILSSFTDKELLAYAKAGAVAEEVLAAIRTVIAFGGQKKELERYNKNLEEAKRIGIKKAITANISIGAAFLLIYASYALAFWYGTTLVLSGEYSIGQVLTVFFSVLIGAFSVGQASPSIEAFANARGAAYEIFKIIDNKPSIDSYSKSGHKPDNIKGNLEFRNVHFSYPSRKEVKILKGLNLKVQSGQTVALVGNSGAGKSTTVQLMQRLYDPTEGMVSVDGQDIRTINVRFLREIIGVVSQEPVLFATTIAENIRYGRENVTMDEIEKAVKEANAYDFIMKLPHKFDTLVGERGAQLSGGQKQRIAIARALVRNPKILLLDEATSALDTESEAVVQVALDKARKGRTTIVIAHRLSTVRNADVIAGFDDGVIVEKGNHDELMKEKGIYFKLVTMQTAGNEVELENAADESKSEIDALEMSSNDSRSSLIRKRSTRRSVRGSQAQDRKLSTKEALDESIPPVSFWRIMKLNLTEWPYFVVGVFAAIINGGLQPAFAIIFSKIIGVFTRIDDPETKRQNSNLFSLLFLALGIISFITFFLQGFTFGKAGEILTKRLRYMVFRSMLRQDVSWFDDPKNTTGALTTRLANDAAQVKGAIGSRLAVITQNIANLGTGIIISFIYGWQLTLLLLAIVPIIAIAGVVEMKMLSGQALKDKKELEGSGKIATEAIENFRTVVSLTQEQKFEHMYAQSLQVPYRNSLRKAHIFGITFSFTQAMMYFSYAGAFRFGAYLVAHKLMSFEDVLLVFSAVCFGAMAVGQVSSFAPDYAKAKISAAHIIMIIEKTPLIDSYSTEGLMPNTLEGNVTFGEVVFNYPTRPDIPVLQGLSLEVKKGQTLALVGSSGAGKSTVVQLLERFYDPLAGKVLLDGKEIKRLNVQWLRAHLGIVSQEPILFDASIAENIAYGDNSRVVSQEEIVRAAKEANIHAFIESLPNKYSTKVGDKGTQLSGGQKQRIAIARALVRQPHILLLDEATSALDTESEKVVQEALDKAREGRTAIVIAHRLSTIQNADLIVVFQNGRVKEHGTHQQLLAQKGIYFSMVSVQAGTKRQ
Experimental: as §1, §2

Y307C mutant Pgp [7] = molecular target: T7, Y307C mutant Pgp (Homo sapiens, UniProt P08183, C1074A/C1125A/C1227A/C137A/C431A/C717A/C956A/Y307C); test: as above; conditions: compared to cysless WT Pgp (taken as 100%), calcein-AM 0.5 µM 10 min, Rh123 […], other substrates 0.5 µM 45 min
Experimental: as §1, §2

[8] = molecular target: T8, Y307C/Q725C/V982C mutant Pgp (Homo sapiens, UniProt P08183, C1074A/C1125A/C1227A/C137A/C431A/C717A/C956A/Q725C/V982C/Y307C); test: Inhibition of IAAP photo-labeling of Pgp in crude membranes
T8 sequence (P08183 whole entry C137A/Y307C/C431A/C717A/Q725C/C956A/V982C/C1074A/C1125A/C1227A): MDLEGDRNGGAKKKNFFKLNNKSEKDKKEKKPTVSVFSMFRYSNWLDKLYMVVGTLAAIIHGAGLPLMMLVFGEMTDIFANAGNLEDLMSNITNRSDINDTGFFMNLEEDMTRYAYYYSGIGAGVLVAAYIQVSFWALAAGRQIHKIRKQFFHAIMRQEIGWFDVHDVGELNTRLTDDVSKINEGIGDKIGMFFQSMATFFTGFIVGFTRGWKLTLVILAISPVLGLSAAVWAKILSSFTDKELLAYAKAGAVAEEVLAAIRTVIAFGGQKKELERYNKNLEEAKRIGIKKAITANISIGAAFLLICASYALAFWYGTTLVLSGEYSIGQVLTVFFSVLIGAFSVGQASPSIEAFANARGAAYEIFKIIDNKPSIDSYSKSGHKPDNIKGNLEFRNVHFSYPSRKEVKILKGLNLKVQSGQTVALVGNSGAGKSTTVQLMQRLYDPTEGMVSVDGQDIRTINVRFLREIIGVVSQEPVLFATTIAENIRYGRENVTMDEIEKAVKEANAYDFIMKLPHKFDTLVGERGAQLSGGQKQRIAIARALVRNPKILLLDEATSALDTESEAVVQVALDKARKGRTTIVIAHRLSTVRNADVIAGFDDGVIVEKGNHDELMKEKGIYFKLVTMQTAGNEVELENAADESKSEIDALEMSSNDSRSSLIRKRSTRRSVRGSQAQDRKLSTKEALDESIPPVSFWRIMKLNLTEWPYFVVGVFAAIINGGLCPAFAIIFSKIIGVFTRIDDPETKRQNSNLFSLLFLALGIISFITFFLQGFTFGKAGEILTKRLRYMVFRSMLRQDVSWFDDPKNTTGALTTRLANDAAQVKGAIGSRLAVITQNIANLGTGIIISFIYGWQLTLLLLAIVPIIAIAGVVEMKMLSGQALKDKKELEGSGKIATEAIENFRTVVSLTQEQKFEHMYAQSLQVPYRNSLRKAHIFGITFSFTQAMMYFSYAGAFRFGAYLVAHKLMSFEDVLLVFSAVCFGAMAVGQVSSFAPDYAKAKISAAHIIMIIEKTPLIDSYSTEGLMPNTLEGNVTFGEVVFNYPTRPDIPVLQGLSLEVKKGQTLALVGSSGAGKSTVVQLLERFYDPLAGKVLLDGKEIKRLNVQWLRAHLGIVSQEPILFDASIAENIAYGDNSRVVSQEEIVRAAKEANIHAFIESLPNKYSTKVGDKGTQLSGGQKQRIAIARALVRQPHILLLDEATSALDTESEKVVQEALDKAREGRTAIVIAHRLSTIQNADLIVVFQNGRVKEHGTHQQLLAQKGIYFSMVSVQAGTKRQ
Experimental: (§3) Then, samples were photocrosslinked with IAAP at 4°C as described in the Materials and Methods section. Mean values from at least three independent experiments are plotted and error bars depict SD.
(§4) High-Five insect cells (Invitrogen, Carlsbad, CA) were infected with recombinant baculovirus carrying the human MDR1 cDNA cysless WT and various mutant Pgps, with a His6-tag at the C-terminus as described previously. Crude membranes were prepared as described previously
(§5) The crude membranes of High-Five insect cells containing 60-80 µg protein per 100 µL in 50 mM MES-Tris buffer (pH 6.8), were incubated for 10 minutes at 37°C in the absence (control) and presence of compound(s) at indicated concentration.

cysless WT Pgp [9] = molecular target: T9, cysless WT Pgp (Homo sapiens, UniProt P08183, C1074A/C1125A/C1227A/C137A/C431A/C717A/C956A); test: as above
Experimental: as §3, §4, §5

F343C mutant Pgp [10] = molecular target: T1, F343C mutant Pgp; test: Vanadate-sensitive ATP hydrolysis of Pgp in crude membranes; conditions: Verapamil 50 µM, QZ59-SSS 1 µM, FSBA 1 mM
Experimental: (§6) Vanadate-sensitive Pgp-mediated ATP hydrolysis was measured as described in Materials and Methods. […] At least two independent experiments were carried out for each mutant with indicated compounds. Additional information including standard deviations, fold-stimulation or % inhibition, and number of experiments is given in the section (Tables S2 and S3).
as §4
(§7) Crude membranes (10-25 µg protein/100 µ L) from High Five insect cells expressing cysless WT or mutant Pgp were incubated in the presence and absence of sodium orthovanadate (0.3 mM), in a buffer containing 50 mM MES-Tris pH 6.8, 50 mM KCl, 5 mM NaN3, 1 mM EGTA, 1 mM ouabain, 2 mM DTT, and 10 mM MgCl2. […] The reaction was initiated by addition of 5 mM ATP and continued for 20 min at 37°C. […] The reaction was stopped by addition of 100 µ L of 5% SDS and the amount of inorganic phosphate generated was quantified with a colorimetric reaction, as previously described.

F343C/V982C mutant Pgp [11] = molecular target: T2, F343C/V982C mutant Pgp; test: as above; conditions: Verapamil 50 µM, QZ59-SSS 1 µM, Valinomycin 10 µM, FSBA 1 mM
Experimental: as §6, §4, §7

F728C mutant Pgp [12] = molecular target: T3, F728C mutant Pgp; test: as above; conditions: Verapamil 50 µM, QZ59-SSS 1 µM, Valinomycin 10 µM, FSBA 1 mM
Experimental: as §6, §4, §7

F728C/V982C mutant Pgp = F728C/V982C mutant Pgp (Homo sapiens, UniProt P08183, C1074A/C1125A/C1227A/C137A/C431A/C717A/C956A/F728C/V982C); test: as above; conditions: Verapamil 50 µM, QZ59-SSS 1 µM, Valinomycin 10 µM, FSBA 1 mM
Experimental: as §6, §4, §7

Q725C mutant Pgp [13] = molecular target: T4, Q725C mutant Pgp; test: as above; conditions: Verapamil 50 µM, QZ59-SSS 1 µM, Valinomycin 10 µM, FSBA 1 mM
Experimental: as §6, §4, §7

Q725C/V982C mutant Pgp [14] = molecular target: T5, Q725C/V982C mutant Pgp; test: as above; conditions: Verapamil 50 µM, QZ59-SSS 1 µM, Valinomycin 10 µM, FSBA 1 mM
Experimental: as §6, §4, §7

V982C mutant Pgp [15] = molecular target: T6, V982C mutant Pgp; test: as above; conditions: Verapamil 50 µM, QZ59-SSS 1 µM, Valinomycin 10 µM, FSBA 1 mM
Experimental: as §6, §4, §7

Y307C mutant Pgp [16] = molecular target: T7, Y307C mutant Pgp; test: as above; conditions: Verapamil 50 µM, QZ59-SSS 1 µM, Valinomycin 10 µM, FSBA 1 mM
Experimental: as §6, §4, §7

[17] = molecular target: T8, Y307C/Q725C/V982C mutant Pgp; test: as above; conditions: Verapamil 50 µM, QZ59-SSS 1 µM, Valinomycin 10 µM, FSBA 1 mM
Experimental: as §6, §4, §7

Y307C/V982C mutant Pgp = Y307C/V982C mutant Pgp (Homo sapiens, UniProt P08183, C1074A/C1125A/C1227A/C137A/C431A/C717A/C956A/V982C/Y307C); test: as above; conditions: Verapamil 50 µM, QZ59-SSS 1 µM, Valinomycin 10 µM, FSBA 1 mM
Experimental: as §6, §4, §7

cysless WT Pgp [18] = molecular target: T9, cysless WT Pgp; test: as above; conditions: Verapamil 50 µM, QZ59-SSS 1 µM, Valinomycin 10 µM, FSBA 1 mM
Experimental: as §6, §4, §7

all mutant Pgps = test: as above; format: biochemical, human
Experimental: Crude membranes were prepared as described previously

For `COc1cccc2c1C(=O)c1c(O)c3c(c(O)c1C2=O)C[C@@](O)(C(C)=O)C[C@@H]3O[C@H]1C[C@H](N)[C@H](O)[C@H](C)O1` [Dauno, daunorubicin], the Transport function (F343C mutant Pgp [1]) was 90-100%, the Transport function (F343C/V982C mutant Pgp [2]) was 90-100% and the Transport function (F728C mutant Pgp [3]) was 90-100%. For the same compound, the Transport function (F978C mutant Pgp) was 90-100%, the Transport function (Q725C mutant Pgp [4]) was 90-100% and the Transport function (Q725C/V982C mutant Pgp [5]) was 90-100%. The Transport function (V982C mutant Pgp [6]) was 90-100% and the Transport function (Y307C mutant Pgp [7]) was 90-100%.
For `Nc1ncnc2c1ncn2[C@@H]1O[C@H](COC(=O)c2ccc(S(=O)(=O)F)cc2)[C@@H](O)[C@H]1O` [FSBA, 5′-fluorosulfonylbenzoyl 5′-adenosine], the “Inhibition of IAAP photo-labeling” value ([8]; Y307C/Q725C/V982C, at higher concentrations) was less than 30%, the “Max Inhibition (%) of IAAP-labeling” value (cysless WT Pgp [9]; Cysless WT, High-Five crude membranes) was 85% and the IC50 (cysless WT Pgp [9]; read-out: IC50 (µM), inhibition of IAAP-labeling, Cysless WT, High-Five crude membranes) was 390 µM. The “ATP hydrolysis, Average” value (F343C mutant Pgp [10]) was 39 nmoles Pi/min/mg protein, the “ATP hydrolysis, Fold-stimulation” value (F343C mutant Pgp [10]; relative to basal) was 2.1 and the “ATP hydrolysis, Average” value (F343C/V982C mutant Pgp [11]) was 50 nmoles Pi/min/mg protein. The “ATP hydrolysis, Fold-stimulation” value (F343C/V982C mutant Pgp [11]; relative to basal) was 2.7, the “ATP hydrolysis, Average” value (F728C mutant Pgp [12]) was 11 nmoles Pi/min/mg protein and the “ATP hydrolysis, Fold-stimulation” value (F728C mutant Pgp [12]; relative to basal) was 1.8. The “ATP hydrolysis, Average” value (F728C/V982C mutant Pgp) was 5 nmoles Pi/min/mg protein, the “ATP hydrolysis, Fold-stimulation” value (F728C/V982C mutant Pgp; relative to basal) was 1.1 and the “ATP hydrolysis, Average” value (Q725C mutant Pgp [13]) was 10 nmoles Pi/min/mg protein. For the same compound, the “ATP hydrolysis, Fold-stimulation” value (Q725C mutant Pgp [13]; relative to basal) was 2.0, the “ATP hydrolysis, Average” value (Q725C/V982C mutant Pgp [14]) was 12 nmoles Pi/min/mg protein and the “ATP hydrolysis, Fold-stimulation” value (Q725C/V982C mutant Pgp [14]; relative to basal) was 2.3. For the same compound, the “ATP hydrolysis, Average” value (V982C mutant Pgp [15]) was 28 nmoles Pi/min/mg protein, the “ATP hydrolysis, Fold-stimulation” value (V982C mutant Pgp [15]; relative to basal) was 2.4 and the “ATP hydrolysis, Average” value (Y307C mutant Pgp [16]) was 14 nmoles Pi/min/mg protein. For the same compound, the “ATP hydrolysis, Fold-stimulation” value (Y307C mutant Pgp [16]; relative to basal) was 1.9, the “ATP hydrolysis, Average” value [17] was 6 nmoles Pi/min/mg protein and the “ATP hydrolysis, Average” value (Y307C/V982C mutant Pgp) was 20 nmoles Pi/min/mg protein. The “ATP hydrolysis, Fold-stimulation” value (Y307C/V982C mutant Pgp; relative to basal) was 2.1, the “ATP hydrolysis, Average” value (cysless WT Pgp [18]) was 52 nmoles Pi/min/mg protein and the “ATP hydrolysis, Fold-stimulation” value (cysless WT Pgp [18]; relative to basal) was 2.4.
`CC(C)[C@@H]1NC(=O)c2csc(n2)[C@H](C(C)C)NC(=O)c2csc(n2)[C@H](C(C)C)NC(=O)c2csc1n2` [QZ59-SSS] was tested, and the “Inhibition of IAAP photo-labeling” value [8] was less than 30%, the IC50 (cysless WT Pgp [9]) was 6 µM and the “Max Inhibition (%) of IAAP-labeling” value (cysless WT Pgp [9]) was 72%. The “Modulation of ATP hydrolysis” value (all mutant Pgps; all mutant Pgps, inhibition measured in presence of verapamil 5 µM) was “stimulates ATP hydrolysis of the mutant Pgps with no exceptions”.
For `COC(=O)c1ccccc1-c1c2ccc(=N)cc-2oc2cc(N)ccc12` [Rh123, rhodamine123], the Transport function (F343C mutant Pgp [1]) was 90-100%, the Transport function (F343C/V982C mutant Pgp [2]) was 90-100% and the Transport function (F728C mutant Pgp [3]) was 90-100%. For the same compound, the Transport function (F978C mutant Pgp) was 90-100%, the Transport function (Q725C mutant Pgp [4]) was 90-100% and the Transport function (Q725C/V982C mutant Pgp [5]) was 90-100%. For the same compound, the Transport function (V982C mutant Pgp [6]) was 90-100% and the Transport function (Y307C mutant Pgp [7]) was 90-100%.
`COc1ccc(CCN(C)CCCC(C#N)(c2ccc(OC)c(OC)c2)C(C)C)cc1OC` (stereo not drawn) [Verapamil, verapamil] was tested, and the “Stimulation of ATP hydrolysis” value (all mutant Pgps; all the mutants, Verapamil 50 µM) was 2-4 fold.
